US20040081972A1, “Novel physiologically active peptide and use thereof” (priority 2000, published 2004)
[ ]: non-standard residue; d: D form. LYB = not defined here

Legend:
Type in all cases: cell-based
[1] = system: thymus, abdominal muscle, diaphragm, kidney, crystalline lens, pancreas, fat tissue, liver, blood vessel, ovary, womb and adrenal gland; assay: Intracellular calcium (aequorin luminescence) in organs other than the spleen and skull of apoaequorin transgenic mouse
Experimental: In order to measure changes in the concentration of an intracellular signal transduction substance in cells constituting the organs, a transgenic mouse prepared by integrated an apoaequorin gene expression vector into a chromosome was used. […] The transgenic mouse was prepared and reared as an SPF animal in a clean room, and was not contaminated with pathogens including mouse hepatitis virus, Sendai virus, mycoplasma and Tyzzer bacterium.

[2] = system: spleen of an apoaequorin transgenic mouse; assay: Intracellular calcium (aequorin luminescence) in spleen pieces of apoaequorin transgenic mouse; conditions: for physiological activity (the activity found in Peptide 1 or Peptide 3): purified samples, method of Example 3
Experimental: (§1) In order to evaluate physiological activities of the peptides prepared in Example 1, the prepared peptides were allowed to act upon organs excised from the living body, and changes in the concentration of an intracellular signal transduction substance in cells constituting the organs were measured.
(§2) In order to measure changes in the concentration of an intracellular signal transduction substance in cells constituting the organs, a transgenic mouse prepared by integrated an apoaequorin gene expression vector into a chromosome was used. Specifically, a female mouse derived from the transgenic mouse disclosed in Reference Example 4 as an individual number 98075-04-6 was used in the test. The transgenic mouse was prepared and reared as an SPF animal in a clean room, and was not contaminated with pathogens including mouse hepatitis virus, Sendai virus, mycoplasma and Tyzzer bacterium.
(§3) Aequorin is a bioluminescent protein complex which is present in the umbrella region of luminescent Aequorea victoria. Aequorin is constituted from its protein moiety apoaequorin, its luminescence substrate coelent razin and molecular oxygen, and emits light by its binding with calcium ion. Since expression of the apoaequorin protein has been confirmed in at least thymus, spleen, abdominal muscle, diaphragm, kidney, crystalline lens, pancreas, fat tissue, liver, skull, blood vessel, ovary, womb and adrenal gland of the transgenic mouse used in the test, it was able to monitor changes in the intracellular calcium ion concentration in these organs with a high sensitivity.
(§4) Organs were prepared from offsprings borne from the female of individual number 98075-04-6 to examine the activities of the peptides produced in Example 1. After the offsprings were killed, the thymus, spleen, abdominal muscle, diaphragm, kidney, crystalline lens, pancreas, fat tissue, liver, skull, blood vessel, ovary, womb and adrenal gland were excised. Each of the excised organs was cut into small cubes of about 1 to 2 mm square in PBS containing 10 units/ml of heparin sodium and thoroughly washed by changing the solution. Next, three pieces of each of the organ samples thus prepared were put into a 5 ml capacity tube (Rohren-Tubes; No. 55.476, manufactured by Sarstedt) which had been charged with RPMI 1640 medium containing 200 μl of 10 μmol/l coelenterazine (manufactured by Molecular Probes), and cultured at 37° C. for 5 hours. Five hours after, various substances shown below dissolved in RPMI 1640 medium were added at 200 μl, and the luminescence was measured just after the addition at 1 second intervals using a luminometer AutoLumat LB953 (manufactured by BERTHOLD).
Organs were prepared from offsprings borne from the female of individual number 98075-04-6 to examine the activities of the peptides produced in Example 1. After the offsprings were killed, the spleen was excised. The excised spleen was cut into small cubes of about 1 to 2 mm square in PBS containing 10 units/ml of heparin sodium and thoroughly washed by changing the solution. Next, three pieces of the prepared spleen sample were put into a 5 ml capacity tube (Rohren-Tubes; No. 55.476, manufactured by Sarstedt) which had been charged with RPMI 1640 medium containing 200 μl of 10 μmol/l coelenterazine (manufactured by Molecular Probes), and cultured at 37° C. for 5 hours. Five hours after, various substances shown below dissolved in RPMI 1640 medium were added at 200 μl, and the luminescence was measured just after the addition at 1 second intervals using a luminometer AutoLumat LB953 (manufactured by BERTHOLD).
RPMI 1640, a peptide prepared in Example 1 (final concentration: 10 nmol/l), a peptide prepared in Example 1 (final concentration: 100 nmol/l), a peptide prepared in Example 1 (final concentration: 1 μmol/l), a peptide prepared in Example 1 (final concentration; 10 μmol/l), ATP (final concentration: 100 μmol/l), A23187 (final concentration: 1 μmol/l) and Triton X-100 (final concentration: 2%) were added in order. […]

[3] = system: thymus of an apoaequorin transgenic mouse; assay: Intracellular calcium (aequorin luminescence) in thymus pieces of apoaequorin transgenic mouse
Experimental: as §1
In order to measure changes in the concentration of an intracellular signal transduction substance in cells constituting the organs, a transgenic mouse prepared by integrated an apoaequorin gene expression vector into a chromosome was used. Specifically, a female mouse derived from the transgenic mouse disclosed in Reference Example 4 as an individual number 98075-04-6 was used in the test. […]
Aequorin is a bioluminescent protein complex which is present in the umbrella region of luminescent Aequorea victoria. Aequorin is constituted from its protein moiety apoaequorin, its luminescence substrate coelent razin and molecular oxygen, and emits light by its binding with calcium ion. […]
Organs were prepared from offsprings borne from the female of individual number 98075-04-6 to examine the activities of the peptides produced in Example 1. […] Five hours after, various substances shown below dissolved in RPMI 1640 medium were added at 200 μl, and the luminescence was measured just after the addition at 1 second intervals using a luminometer AutoLumat LB953 (manufactured by BERTHOLD).

[4] = system: blood vessel of an apoaequorin transgenic mouse; assay: Intracellular calcium (aequorin luminescence) in blood vessel pieces of apoaequorin transgenic mouse
Experimental: as §1, §2, §3, §4

[5] = system: skull (cranial bone) of an apoaequorin transgenic mouse; assay: Intracellular calcium (aequorin luminescence) in skull (cranial bone) pieces of apoaequorin transgenic mouse; conditions: final concentration 10 μmol/l
Experimental: as §1, §2, §3, §4

[6] = system: spleen of an apoaequorin transgenic mouse; assay: Intracellular calcium (aequorin luminescence) in spleen pieces of apoaequorin transgenic mouse; conditions: final concentration 6 μmol/l
[7] = 10 nmol/l, 100 nmol/l, 1 μmol/l, 10 μmol/l added in order

Molecule: Nc1ncnc2c1ncn2[C@@H]1O[C@H](COP(=O)(O)OP(=O)(O)OP(=O)(O)O)[C@@H](O)[C@H]1O [ATP]
- luminescence (intracellular calcium increase) ([1]; final concentration 100 μmol/l): luminescence was observed
- luminescence (intracellular calcium increase) ([2]; final concentration 100 μmol/l): Strong luminescence
- luminescence (intracellular calcium increase) ([3]; final concentration 100 μmol/l): Strong luminescence
- luminescence (intracellular calcium increase) ([4]; final concentration 100 μmol/l): Strong luminescence

Molecule: H-Leu-Ser-Pro-His-Thr-Lys-Leu-Ser-Tyr-Gly-Glu-Gly-Val-Phe-Leu-Arg-Leu-Ser-Lys-Ser-Glu-Gly-Leu-Met-Glu-Ile-Lys-Leu-Met-Glu-Asp-Leu-Met-Val-Phe-Pro-Lys-Thr-Gly-NH2 (H-LSPHTKLSYGEGVFLRLSKSEGLMEIKLMEDLMVFPKTG-NH2) [Peptide 1S]
- luminescence (intracellular calcium increase) ([2]; final concentration 10 μmol/l): not detected
- luminescence (intracellular calcium increase) [5]: not detected

Molecule: C[N+](C)(C)CCOC(N)=O [carbachol]
- luminescence (intracellular calcium increase) ([4]; final concentration 10 μmol/l): Strong luminescenc

Molecule: H-Leu-Ile-Arg-Glu-Val-Ser-Ser-Gly-Ser-Glu-Glu-Thr-Phe-Ser-Tyr-Ser-Asp-Phe-Leu-Arg-Met-Met-Leu-NH2 (H-LIREVSSGSEETFSYSDFLRMML-NH2) [Peptide 2 short]
- final concentration from which concentration-dependent luminescence was observed [2, 7]: 1 µmol/L
- activity maintained relative to the activity of Peptide 2 ([2]; fraction of Peptide 2 activity): 1/10

Molecule: CNC[C@H](O)c1cccc(O)c1 [phenylephrine]
- luminescence (intracellular calcium increase) ([3]; final concentration 20 μmol/l): Strong luminescence
- luminescence (intracellular calcium increase) ([4]; final concentration 20 μmol/l): Strong luminescence

Molecule: H-Met-Leu-Glu-Lys-Leu-Gly-Val-Pro-Lys-Thr-His-Leu-Glu-Leu-Lys-Lys-Leu-Ile-Gly-Glu-Val-Ser-Ser-Gly-Ser-Gly-Glu-Thr-Phe-Ser-Tyr-Pro-Asp-Phe-Leu-Arg-Met-Met-Leu-NH2 (H-MLEKLGVPKTHLELKKLIGEVSSGSGETFSYPDFLRMML-NH2) [Peptide 1]
- concentration at which luminescence accompanied by the increased intracellular calcium was observed [2, 7]: 10 µmol/L
- luminescence (intracellular calcium increase) ([2]; final concentration 10 μmol/l): Strong luminescence
- luminescence (intracellular calcium increase) [6]: Strong luminescence
- luminescence (intracellular calcium increase) [5]: Strong luminescence

Molecule: H-Val-Thr-Pro-His-Thr-Lys-Leu-Val-Tyr-Ser-Glu-Ser-Val-Ile-Met-Asn-Met-Ser-Lys-Gly-Glu-Gly-Leu-Met-Glu-Ile-Lys-Leu-Met-Asp-Asp-Met-Met-Thr-Phe-Arg-Lys-val-Gly-NH2 (H-VTPHTKLVYSESVIMNMSKGEGLMEIKLMDDMMTFRK[dV]G-NH2; SMILES CC[C@H](C)[C@H](NC(=O)[C@H](CCC(=O)O)NC(=O)[C@H](CCSC)NC(=O)[C@H](CC(C)C)NC(=O)CNC(=O)[C@H](CCC(=O)O)NC(=O)CNC(=O)[C@H](CCCCN)NC(=O)[C@H](CO)NC(=O)[C@H](CCSC)NC(=O)[C@H](CC(N)=O)NC(=O)[C@H](CCSC)NC(=O)[C@@H](NC(=O)[C@@H](NC(=O)[C@H](CO)NC(=O)[C@H](CCC(=O)O)NC(=O)[C@H](CO)NC(=O)[C@H](Cc1ccc(O)cc1)NC(=O)[C@@H](NC(=O)[C@H](CC(C)C)NC(=O)[C@H](CCCCN)NC(=O)[C@@H](NC(=O)[C@H](Cc1c[nH]cn1)NC(=O)[C@@H]1CCCN1C(=O)[C@@H](NC(=O)[C@@H](N)C(C)C)[C@@H](C)O)[C@@H](C)O)C(C)C)C(C)C)[C@@H](C)CC)C(=O)N[C@@H](CCCCN)C(=O)N[C@@H](CC(C)C)C(=O)N[C@@H](CCSC)C(=O)N[C@@H](CC(=O)O)C(=O)N[C@@H](CC(=O)O)C(=O)N[C@@H](CCSC)C(=O)N[C@@H](CCSC)C(=O)N[C@H](C(=O)N[C@@H](Cc1ccccc1)C(=O)N[C@@H](CCCNC(=N)N)C(=O)N[C@@H](CCCCN)C(=O)N[C@@H](C(=O)NCC(N)=O)C(C)C)[C@@H](C)O) [Peptide 3S]
- luminescence (intracellular calcium increase) ([2]; final concentration 10 μmol/l): not detected
- luminescence (intracellular calcium increase) [5]: not detected

Molecule: Triton X-100
- luminescence ([1]; final concentration 2%): luminescence was observed

Molecule: H-Leu-Ser-Pro-His-Thr-Lys-Leu-Ser-Tyr-Arg-Glu-Glu-Val-Phe-Leu-Arg-Leu-Ser-Lys-Ser-Glu-Gly-Leu-Met-Glu-Ile-LYB-Leu-Met-Glu-Asp-Leu-Met-val-Phe-Ser-Arg-Thr-Gly-NH2 (H-LSPHTKLSYREEVFLRLSKSEGLMEI[LYB]LMEDLM[dV]FSRTG-NH2; reading uncertain) [Peptide 2S]
- luminescence (intracellular calcium increase) ([2]; final concentration 10 μmol/l): not detected
- luminescence (intracellular calcium increase) [5]: not detected

Molecule: H-Met-Leu-Glu-Lys-Leu-Gly-Val-Pro-Lys-Thr-His-Leu-Glu-Leu-Lys-Arg-Leu-Ile-Arg-Glu-Val-Ser-Ser-Gly-Ser-Glu-Glu-Thr-Phe-Ser-Tyr-Ser-Asp-Phe-Leu-Arg-Met-Met-Leu-NH2 (H-MLEKLGVPKTHLELKRLIREVSSGSEETFSYSDFLRMML-NH2) [Peptide 2]
- final concentration from which concentration-dependent luminescence was observed [2, 7]: 0.1 µmol/L
- luminescence (intracellular calcium increase) ([2]; final concentration 10 μmol/l): Strong luminescence
- luminescence (intracellular calcium increase) [5]: Strong luminescence

Molecule: CNc1ccc2oc(C[C@H]3O[C@@]4(CC[C@H]3C)O[C@H]([C@H](C)C(=O)c3ccc[nH]3)[C@H](C)C[C@H]4C)nc2c1C(=O)O [Peptide A23187, A23187]
- luminescence (intracellular calcium increase) ([1]; final concentration 1 μmol/l): luminescence was observed

Molecule: CC[C@H](C)[C@H](NC(=O)[C@H](CC(=O)O)NC(=O)[C@H](CC(C)C)NC(=O)[C@H](Cc1c[nH]cn1)NC(=O)[C@@H]1CSSC[C@H](N)C(=O)N[C@@H](CO)C(=O)N[C@H]2CSSC[C@H](NC(=O)[C@H](CCC(=O)O)NC(=O)[C@H](CCCCN)NC(=O)[C@H](CC(=O)O)NC(=O)[C@H](CCSC)NC(=O)[C@H](CC(C)C)NC(=O)[C@H](CO)NC(=O)[C@H](CO)NC2=O)C(=O)N[C@@H](C(C)C)C(=O)N[C@@H](Cc2ccc(O)cc2)C(=O)N[C@@H](Cc2ccccc2)C(=O)N1)C(=O)N[C@H](C(=O)N[C@@H](Cc1c[nH]c2ccccc12)C(=O)O)[C@@H](C)CC [endothelin]
- luminescence (intracellular calcium increase) ([4]; final concentration 10 nmol/l): Strong luminescence

B1: AIF-1: precursor protein comprising the amino acid sequence represented by SEQ ID NO:1; purified after FXa cleavage of MBP fusion (protein, listed as Homo sapiens)
chain: MSQTRDLQGGKAFGLLKAQQEERLDEINKQFLDDPKYSSDEDLPSKLEGFKEKYMEFDLNGNGDIDIMSLKRMLEKLGVPKTHLELKKLIGEVSSGSGETFSYPDFLRMMLGKRSAILKMILMYEEKAREKEKPTGPPAKKAISELP
- physiological activity (the activity found in Peptide 1 or Peptide 3) [2]: not observed

B2: AIF-2: precursor protein comprising the amino acid sequence represented by SEQ ID NO:5; purified after FXa cleavage of MBP fusion (protein, listed as Homo sapiens)
chain: MSGELSNRFQGGKAFGLLKARQERRLAEINRELLCDQKYSDEENLPEKLTAFKEKYMEFDLNNEGEIDLMSLKRMMEKLGVPKTHLEMKKMISEVTGGVSDTISYRDFVNMMLGKRSAVLKLVMMFEGKANESSPKPVGPPPERDIASLP
- physiological activity (the activity found in Peptide 1 or Peptide 3) [2]: not observed
